Tests used:
HiBit-BRM fusion protein = target: T1, HiBit-BRM fusion protein (Homo sapiens, UniProt P51531); test: HiBiT-BRM cell-based degradation assay (Nano-Glo HiBiT Lytic Detection); conditions: stable HeLa cell line expressing HiBiT-BRM, 24 h incubation; for BRM HiBit Degradation Maximum (%): top dose 30 μM; for DC50: read-out: BRM HiBit Degradation IC50
T1 construct: expressed in transfected cells
Experimental: (§1) Procedure: A stable HeLa cell line expressing HiBiT-BRM was generated. On day 0, 5000 cells were seeded in 40 μL of media into each well of 384-well cell culture plates. On day 1, cells were treated with 120 nL DMSO or 120 nL of 3-fold serially DMSO-diluted compounds (10 points in duplicate with 30 μM as final top dose). Subsequently plates were incubated for 24 h in a standard tissue culture incubator and equilibrated at room temperature for 15 minutes. Nano-Glo HiBiT Lytic Detection System (Promega N3050) reagent was freshly prepared and 20 ul was added to each well. Upon addition of this LgBit-containing reagent, the HiBiT and LgBiT proteins associate to form the luminescent NanoBiT luciferase. The plates were shaken for 10 minutes at room temperature and the bioluminescence read using an EnVision plate reader (PerkinElmer).
(§2) The degradation % was calculated using the following formula: % degradation=100%−100%×(LumSample−LumLC)/(LumHC−LumLC). DMSO treated cells are employed as High Control (HC) and 2 μM of a known BRM/BRG1 degrader standard treated cells are employed as Low Control (LC).

[1] = target: T2, HiBit-BRG1 fusion protein (Homo sapiens, UniProt P51532); test: HiBiT-BRG1 cell-based degradation assay (Nano-Glo HiBiT Lytic Detection); conditions: stable HeLa cell line expressing HiBit-BRG1 and LgBit, 24 h incubation; for Dmax: top dose 30 μM, read-out: BRG1 HiBit Degradation Maximum (%); for DC50: read-out: BRMG1 HiBit Degradation IC50
T2 construct: expressed in transfected cells
Experimental: as §1
For measurement of BRG1 degradation, a stable HeLa cell line expressing HiBit-BRG1 and LgBit was generated. The same protocol as above was then followed.
as §2

T1 sequence (P51531 whole entry, the tested form may be a part): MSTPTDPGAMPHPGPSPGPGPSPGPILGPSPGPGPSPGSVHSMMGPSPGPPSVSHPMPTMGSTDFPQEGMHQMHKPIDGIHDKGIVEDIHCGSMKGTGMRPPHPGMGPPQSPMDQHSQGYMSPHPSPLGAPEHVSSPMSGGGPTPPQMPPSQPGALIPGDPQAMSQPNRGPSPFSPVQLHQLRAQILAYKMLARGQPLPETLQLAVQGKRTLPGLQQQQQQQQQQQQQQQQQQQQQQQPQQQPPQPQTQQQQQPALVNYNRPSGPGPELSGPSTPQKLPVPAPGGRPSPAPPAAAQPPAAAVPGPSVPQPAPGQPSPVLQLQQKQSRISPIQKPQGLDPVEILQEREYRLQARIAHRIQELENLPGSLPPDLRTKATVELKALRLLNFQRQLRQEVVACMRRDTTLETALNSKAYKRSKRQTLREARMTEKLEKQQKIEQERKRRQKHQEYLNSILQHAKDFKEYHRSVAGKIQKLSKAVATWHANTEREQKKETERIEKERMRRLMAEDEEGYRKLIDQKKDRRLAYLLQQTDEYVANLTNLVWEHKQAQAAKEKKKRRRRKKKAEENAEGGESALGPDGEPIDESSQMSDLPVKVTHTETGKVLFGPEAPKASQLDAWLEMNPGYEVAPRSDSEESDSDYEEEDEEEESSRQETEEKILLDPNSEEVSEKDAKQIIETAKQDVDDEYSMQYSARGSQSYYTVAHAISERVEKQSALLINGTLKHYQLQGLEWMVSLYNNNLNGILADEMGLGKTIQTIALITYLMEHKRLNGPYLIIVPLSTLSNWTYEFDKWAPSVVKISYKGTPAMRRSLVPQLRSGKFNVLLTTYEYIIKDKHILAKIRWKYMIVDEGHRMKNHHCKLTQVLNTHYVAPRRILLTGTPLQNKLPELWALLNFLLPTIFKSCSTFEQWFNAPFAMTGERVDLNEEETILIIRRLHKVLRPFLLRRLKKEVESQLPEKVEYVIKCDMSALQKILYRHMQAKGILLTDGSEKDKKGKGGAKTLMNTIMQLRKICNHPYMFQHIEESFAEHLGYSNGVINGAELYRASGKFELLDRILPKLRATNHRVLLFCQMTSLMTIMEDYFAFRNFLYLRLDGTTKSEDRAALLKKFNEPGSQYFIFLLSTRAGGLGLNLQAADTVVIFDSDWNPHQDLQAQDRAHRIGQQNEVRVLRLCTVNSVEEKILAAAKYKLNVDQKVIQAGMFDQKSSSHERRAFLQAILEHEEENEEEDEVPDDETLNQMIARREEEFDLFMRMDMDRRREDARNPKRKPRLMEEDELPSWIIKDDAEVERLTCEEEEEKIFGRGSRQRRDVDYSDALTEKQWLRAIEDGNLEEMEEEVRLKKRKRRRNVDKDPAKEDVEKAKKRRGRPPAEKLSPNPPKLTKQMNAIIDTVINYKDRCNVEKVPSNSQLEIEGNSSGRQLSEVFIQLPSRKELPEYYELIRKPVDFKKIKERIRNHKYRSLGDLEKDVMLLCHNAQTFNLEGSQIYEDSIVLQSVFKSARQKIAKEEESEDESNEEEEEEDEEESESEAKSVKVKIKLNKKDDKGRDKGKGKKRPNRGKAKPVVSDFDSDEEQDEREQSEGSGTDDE
T2 sequence (P51532 whole entry, the tested form may be a part): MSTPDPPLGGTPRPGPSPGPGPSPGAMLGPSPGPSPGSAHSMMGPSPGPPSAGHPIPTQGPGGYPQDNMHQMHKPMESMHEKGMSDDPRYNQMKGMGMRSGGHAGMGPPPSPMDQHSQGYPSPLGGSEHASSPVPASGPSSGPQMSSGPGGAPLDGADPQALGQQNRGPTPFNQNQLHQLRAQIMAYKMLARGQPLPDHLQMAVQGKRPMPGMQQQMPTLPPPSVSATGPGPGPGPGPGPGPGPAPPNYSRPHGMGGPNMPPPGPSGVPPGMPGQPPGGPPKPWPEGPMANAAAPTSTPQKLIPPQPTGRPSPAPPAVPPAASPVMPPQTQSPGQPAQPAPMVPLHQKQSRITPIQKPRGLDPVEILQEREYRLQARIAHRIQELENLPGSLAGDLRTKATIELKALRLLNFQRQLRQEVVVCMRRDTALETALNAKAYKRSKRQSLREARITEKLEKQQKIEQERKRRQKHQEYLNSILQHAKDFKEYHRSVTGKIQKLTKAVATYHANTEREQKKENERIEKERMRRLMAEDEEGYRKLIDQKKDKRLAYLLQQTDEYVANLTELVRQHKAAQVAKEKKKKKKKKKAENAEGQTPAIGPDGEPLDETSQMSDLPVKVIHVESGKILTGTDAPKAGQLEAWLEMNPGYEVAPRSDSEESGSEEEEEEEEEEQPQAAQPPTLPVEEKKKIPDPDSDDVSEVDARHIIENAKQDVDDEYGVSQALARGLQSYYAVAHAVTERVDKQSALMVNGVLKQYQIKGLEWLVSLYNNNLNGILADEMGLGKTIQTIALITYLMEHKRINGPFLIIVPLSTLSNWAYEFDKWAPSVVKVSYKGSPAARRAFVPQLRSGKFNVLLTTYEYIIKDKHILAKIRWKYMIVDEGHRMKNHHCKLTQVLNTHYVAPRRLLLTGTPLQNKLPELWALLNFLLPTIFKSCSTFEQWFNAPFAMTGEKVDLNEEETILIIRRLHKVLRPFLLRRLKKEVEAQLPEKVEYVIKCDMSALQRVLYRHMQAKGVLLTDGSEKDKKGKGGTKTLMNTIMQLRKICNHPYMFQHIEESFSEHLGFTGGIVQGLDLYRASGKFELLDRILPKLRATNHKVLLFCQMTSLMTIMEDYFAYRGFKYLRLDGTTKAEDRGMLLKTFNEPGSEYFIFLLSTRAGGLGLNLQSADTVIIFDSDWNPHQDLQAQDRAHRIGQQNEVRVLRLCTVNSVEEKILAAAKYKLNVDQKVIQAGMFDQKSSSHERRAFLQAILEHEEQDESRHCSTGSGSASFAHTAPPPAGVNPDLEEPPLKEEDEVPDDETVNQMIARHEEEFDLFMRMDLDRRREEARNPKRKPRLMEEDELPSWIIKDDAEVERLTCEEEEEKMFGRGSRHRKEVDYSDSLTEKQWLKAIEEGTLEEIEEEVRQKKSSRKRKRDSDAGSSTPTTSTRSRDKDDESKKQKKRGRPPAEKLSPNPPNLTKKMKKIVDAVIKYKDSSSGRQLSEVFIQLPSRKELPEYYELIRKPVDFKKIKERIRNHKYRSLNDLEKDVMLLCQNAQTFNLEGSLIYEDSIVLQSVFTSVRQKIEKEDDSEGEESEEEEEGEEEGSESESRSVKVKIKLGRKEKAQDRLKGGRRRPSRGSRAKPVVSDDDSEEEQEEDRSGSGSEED

Row | Structure (SMILES) | DC50 (HiBit-BRM fusion protein) [nM] | Dmax [1] [%] | DC50 [1] [nM] | BRM HiBit Degradation Maximum (%) (HiBit-BRM fusion protein)
1 | Cc1ncsc1-c1ccc([C@H](C)NC(=O)[C@@H]2C[C@@H](O)CN2C(=O)[C@@H](c2cc(OCCN[C@@H]3CCc4sc5nnc(-c6ccccc6O)cc5c4C3)no2)C(C)C)cc1 [Compound 40, (2S,4R)-4-hydroxy-1-((R)-2-(3-(2-(((R)-3-(2-hydroxyphenyl)-5,6,7,8-tetrahydrobenzo[4,5]thieno[2,3-c]pyridazin-6-yl)amino)ethoxy)isoxazol-5-yl)-3-methylbutanoyl)-N—((S)-1-(4-(4-methylthiazol-5-yl)phenyl)ethyl)pyrrolidine-2-carboxamide] | ≥ 1000 | < 50 | ≥ 1000 | C (“C” indicates maximum degradation < 50%)
2 | Cc1ncsc1-c1ccc([C@H](C)NC(=O)[C@@H]2C[C@@H](O)CN2C(=O)[C@H](c2cc(C3CCN(C(=O)CN4CC(c5cc6cc(-c7ccccc7O)nnc6s5)C4)CC3)no2)C(C)C)cc1 [Compound 12] | ≥ 1000 | < 50 | ≥ 1000 | C (“C” indicates maximum degradation < 50%)
3 | Cc1ncsc1-c1ccc([C@H](C)NC(=O)[C@@H]2C[C@@H](O)CN2C(=O)[C@@H](c2cc(OCCN3CCC(O)(c4sc5nnc(-c6ccccc6O)cc5c4C)CC3)no2)C(C)C)cc1 [Compound 54, (2S,4R)-4-hydroxy-1-((R)-2-(3-(2-(4-hydroxy-4-(3-(2-hydroxyphenyl)-5-methylthieno[2,3-c]pyridazin-6-yl)piperidin-1-yl)ethoxy)isoxazol-5-yl)-3-methylbutanoyl)-N-((S)-1-(4-(4-methylthiazol-5-yl)phenyl)ethyl)pyrrolidine-2-carboxamide] | ≥ 10 | < 50 | ≥ 1000 | A (“A” indicates maximum degradation ≥ 75%)
4 | Cc1ncsc1-c1ccc([C@H](C)NC(=O)[C@@H]2C[C@@H](O)CN2C(=O)[C@H](c2cc(N3CCC(CN4CC(c5cc6cc(-c7ccccc7O)nnc6s5)C4)CC3)no2)C(C)C)cc1 [Compound 33] | ≥ 1000 | < 50 | ≥ 1000 | C (“C” indicates maximum degradation < 50%)
5 | Cc1ncsc1-c1ccc([C@H](C)NC(=O)[C@@H]2C[C@@H](O)CN2C(=O)[C@@H](c2cc(OCCN3C[C@H]4C[C@@H](C3)[C@H]4c3cc4cc(-c5ccccc5O)nnc4s3)no2)C(C)C)cc1 [Compound 74, (2S,4R)-4-hydroxy-1-((R)-2-(3-(2-((1R,5S,6S)-6-(3-(2-hydroxyphenyl)thieno[2,3-c]pyridazin-6-yl)-3-azabicyclo[3.1.1]heptan-3-yl)ethoxy)isoxazol-5-yl)-3-methylbutanoyl)-N-((S)-1-(4-(4-methylthiazol-5-yl)phenyl)ethyl)pyrrolidine-2-carboxamide] | ≥ 1000 | < 50 | ≥ 1000 | C (“C” indicates maximum degradation < 50%)

The next lines start with results.

Row | DC50 (HiBit-BRM fusion protein) [nM] | Dmax [1] [%] | DC50 [1] [nM] | Structure (SMILES) | BRM HiBit Degradation Maximum (%) (HiBit-BRM fusion protein)
6 | < 10 | < 50 | ≥ 1000 | Cc1ncsc1-c1ccc([C@H](C)NC(=O)[C@@H]2C[C@@H](O)CN2C(=O)[C@@H](c2cc(N3CCC(CN4CCC(c5sc6nnc(-c7ccccc7O)cc6c5C)CC4)CC3)no2)C(C)C)cc1 [Compound 94, (2S,4R)-4-hydroxy-1-((R)-2-(3-(4-((4-(3-(2-hydroxyphenyl)-5-methylthieno[2,3-c]pyridazin-6-yl)piperidin-1-yl)methyl)piperidin-1-yl)isoxazol-5-yl)-3-methylbutanoyl)-N-((S)-1-(4-(4-methylthiazol-5-yl)phenyl)ethyl)pyrrolidine-2-carboxamide] | A (“A” indicates maximum degradation ≥ 75%)
7 | ≥ 1000 | < 50 | ≥ 1000 | Cc1ncsc1-c1ccc([C@H](C)NC(=O)[C@@H]2C[C@@H](O)CN2C(=O)[C@@H](c2cc(OCCCN3CCc4sc5nnc(-c6ccccc6O)cc5c4C3)no2)C(C)C)cc1 [Compound 69, (2S,4R)-4-hydroxy-1-((R)-2-(3-(3-(3-(2-hydroxyphenyl)-7,8-dihydropyrido[3′,4′:4,5]thieno[2,3-c]pyridazin-6(5H)-yl)propoxy)isoxazol-5-yl)-3-methylbutanoyl)-N-((S)-1-(4-(4-methylthiazol-5-yl)phenyl)ethyl)pyrrolidine-2-carboxamide] | C (“C” indicates maximum degradation < 50%)
8 | ≥ 1000 | < 50 | ≥ 1000 | Cc1ncsc1-c1ccc([C@H](C)NC(=O)[C@@H]2C[C@@H](O)CN2C(=O)[C@@H](c2cc(N3CCN(C(=O)[C@H]4CCc5sc6nnc(-c7ccccc7O)cc6c5C4)CC3)no2)C(C)C)cc1 [Compound 52, (2S,4R)-4-hydroxy-1-((R)-2-(3-(4-((S)-3-(2-hydroxyphenyl)-5,6,7,8-tetrahydrobenzo[4,5]thieno[2,3-c]pyridazine-6-carbonyl)piperazin-1-yl)isoxazol-5-yl)-3-methylbutanoyl)-N-((S)-1-(4-(4-methylthiazol-5-yl)phenyl)ethyl)pyrrolidine-2-carboxamide] | C (“C” indicates maximum degradation < 50%)
9 | ≥ 10 | < 50 | ≥ 1000 | Cc1ncsc1-c1ccc([C@H](C)NC(=O)[C@@H]2C[C@@H](O)CN2C(=O)[C@@H](c2cc(OCC(=O)N3CCC(c4sc5nnc(-c6ccccc6O)cc5c4C)CC3)no2)C(C)C)cc1 [Compound 93, (2S,4R)-4-hydroxy-1-((R)-2-(3-(2-(4-(3-(2-hydroxyphenyl)-5-methylthieno[2,3-c]pyridazin-6-yl)piperidin-1-yl)-2-oxoethoxy)isoxazol-5-yl)-3-methylbutanoyl)-N-((S)-1-(4-(4-methylthiazol-5-yl)phenyl)ethyl)pyrrolidine-2-carboxamide] | A (“A” indicates maximum degradation ≥ 75%)
10 | ≥ 100 | < 50 | ≥ 1000 | Cc1ncsc1-c1ccc([C@H](C)NC(=O)[C@@H]2C[C@@H](O)CN2C(=O)[C@@H](c2cc(OCCN3CC4CC3CC4c3cc4cc(-c5ccccc5O)nnc4s3)no2)C(C)C)cc1 (stereo partly drawn) [Compound 67, (2S,4R)-4-hydroxy-1-((2R)-2-(3-(2-(5-(3-(2-hydroxyphenyl)thieno[2,3-c]pyridazin-6-yl)-2-azabicyclo[2.2.1]heptan-2-yl)ethoxy)isoxazol-5-yl)-3-methylbutanoyl)-N-((S)-1-(4-(4-methylthiazol-5-yl)phenyl)ethyl)pyrrolidine-2-carboxamide] | A (“A” indicates maximum degradation ≥ 75%)
11 | ≥ 1000 | < 50 | ≥ 1000 | Cc1ncsc1-c1ccc(CNC(=O)[C@@H]2C[C@@H](O)CN2C(=O)[C@@H](NC(=O)C2(F)CC2)C(C)(C)C)c(OCCN2CCC(c3cc4nnc(-c5ccccc5O)cc4s3)CC2)c1 [Compound 77, (2S,4R)-1-((S)-2-(1-fluorocyclopropane-1-carboxamido)-3,3-dimethylbutanoyl)-4-hydroxy-N-(2-(2-(4-(3-(2-hydroxyphenyl)thieno[3,2-c]pyridazin-6-yl)piperidin-1-yl)ethoxy)-4-(4-methylthiazol-5-yl)benzyl)pyrrolidine-2-carboxamide] | C (“C” indicates maximum degradation < 50%)
12 | < 10 | ≥ 75 | ≥ 10 | Cc1ncsc1-c1ccc([C@H](C)NC(=O)[C@@H]2C[C@@H](O)CN2C(=O)[C@@H](c2cc(OCCN3CCN(c4sc5nnc(-c6ccccc6O)cc5c4C)CC3)no2)C(C)C)cc1 [Compound 66, (2S,4R)-4-hydroxy-1-((R)-2-(3-(2-(4-(3-(2-hydroxyphenyl)-5-methylthieno[2,3-c]pyridazin-6-yl)piperazin-1-yl)ethoxy)isoxazol-5-yl)-3-methylbutanoyl)-N-((S)-1-(4-(4-methylthiazol-5-yl)phenyl)ethyl)pyrrolidine-2-carboxamide] | A (“A” indicates maximum degradation ≥ 75%)
13 | ≥ 1000 | < 50 | ≥ 1000 | Cc1ncsc1-c1ccc([C@H](C)NC(=O)[C@@H]2C[C@@H](O)CN2C(=O)[C@@H](c2cc(OCCN3CC(c4csc5nnc(-c6ccccc6O)cc45)C3)no2)C(C)C)cc1 [Compound 102, (2S,4R)-4-hydroxy-1-((R)-2-(3-(2-(3-(3-(2-hydroxyphenyl)thieno[2,3-c]pyridazin-5-yl)azetidin-1-yl)ethoxy)isoxazol-5-yl)-3-methylbutanoyl)-N-((S)-1-(4-(4-methylthiazol-5-yl)phenyl)ethyl)pyrrolidine-2-carboxamide] | C (“C” indicates maximum degradation < 50%)

Reference: patent US20240376121A1, “COMPOUNDS AND USES THEREOF” (Foghorn Therapeutics Inc., priority 2021, published 2024)
